Experimental data from patent US11833158B2, “Compositions comprising omega-3 fatty acids, 17-HDHA and 18-HEPE and methods of using same” (Solutex NA LLC, priority 2015, dated 2023).

Test system: PMA-stimulated THP-1 cells
Test: Phagocytosis of opsonized zymosan bioparticles in PMA-stimulated THP-1 cells (fluorescence)
Assay type: cell-based, human
Settings: oils diluted 1/10^3; Mar-1 at 1 nM; 15 min pretreatment, 60 min incubation with zymosan
Experimental: To determine the capacity of promoting a macrophage pro-resolution phenotype (i.e. M2) and therefore to foster the resolution of inflammation, several oils were tested in a human macrophage model adapted by López Vicario C from a method previously described (Titos et al., 2011) and compared with Mar-1 (the term Maresins is coined from Macrophage mediator in resolving inflammation), an established active compound in resolution of the inflammation.
THP-1 cells were cultured in a 96-well black plate at a density of 3.5×10^4 cells/well in 200 μl RPMI 1640 medium (10% FBS). […]
The compounds tested in this macrophage model were: • Maresin 1 (from Cayman Chemicals) • LM03-1 (a total amount of Omega-3 of about 629.9 mg/g (as FFA), DHA in an amount of about 342.1 mg/g (as FFA), EPA in an amount of about 187.6 mg/g (as FFA), 17-HDHA in an amount of about 60.8 mg/kg and 18-HEPE in an amount of about 87.5 mg/kg with 1.4 mg/g of a mixed natural tocopherols—3624 EE (about 33.0% EPA ethyl ester and about 22% DHA in ethyl ester form expressed as FFA) • Omacor (about 42.5% EPA ethyl ester and about 34.5% DHA in ethyl ester form expressed as FFA)
The concentration of Mar-1 used in the experiment was 1 nM, which has been determined the concentration with maximum activity in phagocytic activation for this compound in previous experiments using this model (data not shown). […]

## CC/C=C\C/C=C\C[C@H](O)/C=C/C=C/C=C/[C@H](O)C/C=C\CCC(=O)O [Maresin-1, 7R,14S-dihydroxy-4Z,8E,10E,12E,16Z,19Z-docosahexaenoic acid]
  phagocytic activity relative to Mar-1 (100% assigned to Mar-1 1 nM): 100%
